Patent publication US20200305481A1, “STEVIOL GLYCOSIDE COMPOSITIONS FOR ORAL INGESTION OR USE” (CARGILL, INCORPORATED, priority 2015, published 2020)
“Also recorded” adds a separate entry of the source.

Columns and labels:
[1] = cited from earlier work; for taste properties in words: background statements, literature sensory evaluation
[2] = Sensory testing of steviol glycoside samples dissolved in water; type: in vivo; settings: for Sensory Comments: about 300 ppm sample in reverse osmosis water, 2-3 mL tasted by two to three experienced tasters; for sweetness in water compared with Reb M in water: in reverse osmosis water, experienced tasters
Procedure: Steviol glycoside samples (SG201, SG203, and SG204) were isolated and purified from fermentation broth, purified Reb A and B are of leaf origin, and Reb M is chemically synthesized. All samples were dissolved in reverse osmosis water at the concentrations indicated. Approximately 2-3 milliliters of each solution was tasted and sensory evaluations conducted by two to three experienced tasters.

[3] = water at room temperature / beverage formulations; cited from earlier work

Structure (SMILES)	taste properties in words [1]	Sensory Comments [2]	times sweeter than sucrose ([1]; relative to sucrose (sugar))	aqueous solubility in words [3]	sweetness in water compared with Reb M in water [2]
C=C1C[C@@]23CC[C@H]4[C@@](C)(CCC[C@@]4(C)C(=O)O[C@@H]4O[C@H](CO)[C@@H](O)[C@H](O)[C@H]4O)[C@@H]2CC[C@]1(O[C@@H]1O[C@H](CO)[C@@H](O)[C@H](O[C@@H]2O[C@H](CO)[C@@H](O)[C@H](O)[C@H]2O)[C@H]1O[C@@H]1O[C@H](CO)[C@@H](O)[C@H](O)[C@H]1O)C3 [Reb A, rebaudioside A]	off-taste issues	some sweet, bitter	–	–	–
C=C1C[C@@]23CC[C@H]4[C@@](C)(CCC[C@@]4(C)C(=O)O[C@@H]4O[C@H](CO)[C@@H](O)[C@H](O)[C@H]4O[C@@H]4O[C@H](CO)[C@@H](O)[C@H](O)[C@H]4O)[C@@H]2CC[C@]1(O[C@@H]1O[C@H](CO)[C@@H](O)[C@H](O[C@@H]2O[C@H](CO)[C@@H](O)[C@H](O)[C@H]2O)[C@H]1O[C@@H]1O[C@H](CO)[C@@H](O)[C@H](O)[C@H]1O)C3 [Reb D, rebaudioside D]	slow onset of sweetness and was very clean	less bitter; also recorded: better sweetness,	200-220 times	low solubility in water at room temperature	–
C=C1C[C@@]23CC[C@H]4[C@@](C)(CCC[C@@]4(C)C(=O)O[C@@H]4O[C@H](CO)[C@@H](O)[C@H](O[C@@H]5O[C@H](CO)[C@@H](O)[C@H](O)[C@H]5O)[C@H]4O[C@@H]4O[C@H](CO)[C@@H](O)[C@H](O)[C@H]4O)[C@@H]2CC[C@]1(O[C@@H]1O[C@H](CO)[C@@H](O)[C@H](O[C@@H]2O[C@H](CO)[C@@H](O)[C@H](O)[C@H]2O)[C@H]1O[C@@H]1O[C@H](CO)[C@@H](O)[C@H](O)[C@H]1O)C3 [Reb M, rebaudioside M]	higher sweetness intensity and is more potent than other steviol glycosides	good sweetness, almost; also recorded: sucrose-like sensation; also recorded: in mouth	–	poor aqueous solubility and dissolution qualities	–
C=C1C[C@@]23CCC4[C@](C)(C(=O)OC5OC(CO)C(O)C(OC6OC(CO)C(O)C(O)C6O)C5OC5OC(CO)C(O)C(O)C5O)CCC[C@@]4(C)[C@@H]2CCC1(OC1OC(CO)C(O)C(O)C1O)C3 (stereo partly drawn) [SG201]	–	not sweet, meaty, brothy,; also recorded: strecker, methional	–	–	do not exhibit sweetness similar to Reb M
C=C1C[C@@]23CCC4[C@](C)(C(=O)OC5OC(CO)C(O)C(O)C5OC5OC(CO)C(O)C(O)C5O)CCC[C@@]4(C)[C@@H]2CCC1(OC1OC(COC2OC(CO)C(O)C(O)C2O)C(O)C(O)C1OC1OC(CO)C(O)C(O)C1O)C3 (stereo partly drawn) [SG203]	–	not sweet, meaty, brothy,; also recorded: strecker, methional	–	–	do not exhibit sweetness similar to Reb M
C=C1C[C@@]23CCC4[C@](C)(C(=O)OC5OC(CO)C(O)C(O)C5OC5OC(CO)C(O)C(O)C5NC(C)=O)CCC[C@@]4(C)[C@@H]2CCC1(OC1OC(CO)C(O)C(OC2OC(CO)C(O)C(O)C2O)C1OC1OC(CO)C(O)C(O)C1O)C3 (stereo partly drawn) [SG204]	–	bitter, not very sweet	–	–	do not exhibit sweetness similar to Reb M
